Each block holds one compound with its values, some of them ahead of it.
Experiments:
[1] = target: T1, substance P receptor (Homo sapiens, UniProt P25103); assay: Radioligand receptor binding inhibitory activity using receptor from human lymphoblast cells (IM-9); conditions: [125I]-BHSP binding, receptor from IM-9 cells, 25 C, 30 min
T1 construct: endogenous in cells; host or cells: IM-9 human lymphoblast cells (membrane preparation)
Procedure: Radioligand receptor binding inhibitory activity (Binding inhibitory activity using receptor from human lymphoblast cells (IM-9))
The method of M. A. Cascieri et al., “Molecular Pharmacology 42, p. 458 (1992)” was modified and used. The receptor was. prepared from human lymphoblast cells (IM-9). IM-9 cells (2×10^5 cells/mL) were incubated for 3 days (one liter), which was then subjected to centrifuge for 5 min. at 500×G to obtain cell pellets. The obtained pellets were washed once with phosphate buffer (Flow Laboratories, CAT. No. 28-103-05), which were then homogenized using Polytron homogenizer (“Kinematika”, Germany) in 30 mL of 50 mM Tris-HCl buffer (pH 7.4) containing 120 mM sodium chloride, 5 mM potassium chloride, 2 μg/mL chymostatin, 40 μg/mL bacitracin, 5 μg/mL phosphoramidon, 0.5 mM phenylmethylsulfonyl fluoride, 1 mM ethylenediamine tetra-acetate, which was subjected to centrifuge at 40,000×G for 20 min. The residue was washed twice with 30 mL of the buffer, which was then preserved frozen (−80° C.) as a specimen of the receptor.
The specimen was suspended in a reaction buffer (50 mM Tris-HCl buffer (pH 7.4), 0.02% bovine serum albumin, 1 mM phenylmethylsulfonyl fluoride, 2 μg/mL chymostatin, 40 μg/mL bacitracin and 3 mM manganese chloride) to have protein in the concentration of 0.5 mg/mL of protein and 100 μL portion of the suspension was used in the reaction. After addition of the sample and ^125]-BHSP (0.46 KBq), the reaction was allowed to proceed in 0.2 mL of reaction buffer at […] for 30 min. The amount of nonspecific binding was determined by adding substance P at a final concentration of 2×10^−6 M.
After the reaction, using a cell harvester (290 PHD, Cambridge Technology, Inc, U.S.A.), filtration was carried out through a glass filter (GF/B, Whatman, U.S.A.), which was immersed in 0.1% polyethyleneimine for 24 hrs. and dried. After washing three times with 250 μL of 50 mM Tris-HCl buffer (pH 7.4) containing 0.02% bovine serum albumin, the radioactivity remaining on the filter was. determined with a gamma counter.
The antagonistic activity of each compound obtained in Examples was determined in terms of the concentration necessary to cause 50% inhibition (IC50 value) under the above-described conditions, and the results were shown in Table 14.
The radio ligand means substance P labeled with [^125I].

[2] = test system: urethane anesthetized male guinea pigs; assay: Bladder capacity increasing action in urethane anesthetized guinea pigs; format: in vivo, guinea pig; conditions: for Changes in bladder capacity (vs before administration, %): mean ± S.E.M.
Procedure: Bladder capacity increasing activity of substance P receptor antagonist (bladder capacity increasing action in urethane anesthetized guinea pigs)
A urinary frequency/urine incontinence suppressing effect of a substance having a substance P receptor antagonistic action was shown in terms of the ability to increase bladder capacity of urethane anesthetized male guinea pigs. After emptying the bladder by suction, saline warmed to 39° C. is infused into the bladder at a constant rate (0.3 mL/min.), until voiding. This procedure was repeated to confirm stable bladder capacity (amount of saline injected before induction of voiding). After confirming a stable response, a compound dissolved in DMSO was intravenously administered and the action was measured. Changes in the bladder capacity after drug administration were measured.

T1 sequence (P25103 whole entry): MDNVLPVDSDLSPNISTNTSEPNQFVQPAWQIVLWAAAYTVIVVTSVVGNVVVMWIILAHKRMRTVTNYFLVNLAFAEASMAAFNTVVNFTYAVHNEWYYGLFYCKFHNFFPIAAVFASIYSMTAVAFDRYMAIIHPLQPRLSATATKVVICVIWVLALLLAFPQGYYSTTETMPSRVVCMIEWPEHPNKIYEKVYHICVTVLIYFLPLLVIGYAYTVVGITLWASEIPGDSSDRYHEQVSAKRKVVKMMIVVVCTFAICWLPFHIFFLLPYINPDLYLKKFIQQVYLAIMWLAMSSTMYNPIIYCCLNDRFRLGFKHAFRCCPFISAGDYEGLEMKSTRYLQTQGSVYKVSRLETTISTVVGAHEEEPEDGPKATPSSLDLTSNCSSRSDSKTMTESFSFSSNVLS

melting point: 150 to 152 °C
Compound: C[C@@H](O[C@@H]1CCNC[C@@H]1c1ccccc1)c1cc(C(F)(F)F)cc(C(F)(F)F)c1.Cl

melting point: 150 to 152 °C
Compound: C[C@H](O[C@H]1CCNC[C@H]1c1ccccc1)c1cc(C(F)(F)F)cc(C(F)(F)F)c1.Cl

IC50 [1]: 0.039 nM
Compound: CCC(=O)N[C@H]1CC[C@H](C(=O)N2CC[C@H](O[C@H](C)c3cc(C(F)(F)F)cc(C(F)(F)F)c3)[C@H](c3ccccc3)C2)CC1 [Example 43, N-[trans-4-[[(3R,4S)-4-[(1R)-1-[3,5-Bis(trifluoromethyl)phenyl]ethoxy]-3-phenylpiperidin-1-yl]carbonyl]cyclohexyl]propanamide]
Changes in bladder capacity (vs before administration, %) ([2]; Table 16, 0.01 mg/kg intravenous): 20.8 ± 5.6%
Changes in bladder capacity (vs before administration, %) ([2]; Table 16, 0.03 mg/kg intravenous): 19.3 ± 4.5%
Changes in bladder capacity (vs before administration, %) ([2]; Table 16, 0.1 mg/kg intravenous): 39.9 ± 4.9 %
Changes in bladder capacity (vs before administration, %) ([2]; Table 16, 0.3 mg/kg intravenous): 55.2 ± 13.3 %
Changes in bladder capacity (vs before administration, %) ([2]; Table 16, 1 mg/kg intravenous): 74.3 ± 11.1 %

Compound: C[C@@H](O[C@H]1OCCN(Cc2n[nH]c(=O)[nH]2)[C@H]1c1ccc(F)cc1)c1cc(C(F)(F)F)cc(C(F)(F)F)c1 [MK-869, 5-[[(2R,3S)-2-[(1R)-1-[3,5-bis(trifluoromethyl)phenyl]ethoxy]-3-(4-fluorophenyl)-4-morpholinyl]methyl]-1,2-dihydro-3H-1,2,4-triazol-3-one, reference compound]
Changes in bladder capacity (vs before administration, %) ([2]; Table 15, 0.1 mg/kg intravenous): 14.7 ± 4.8%
Changes in bladder capacity (vs before administration, %) ([2]; Table 15, 0.3 mg/kg intravenous): 49.5 ± 10.3 %
Changes in bladder capacity (vs before administration, %) ([2]; Table 15, 1 mg/kg intravenous): 71.2 ± 16.9 %
voiding pressure ([2]; intravenous administration, urethane anesthetized guinea pigs): without affecting the voiding pressure
